Measured values: patent publication US9963462B2 (priority 2015, dated 2018)
Read-outs that look alike come from different tables or passages of the source.

Experiments:
[1] = target: SNAP-hSPR (sepiapterin reductase, SPR) (Homo sapiens, UniProt P35270); experiment: biochemical; type: binding; conditions: terbium labelled SNAP-hSPR / SSZ labelled SNAP-EGFP; read-out: hTR-FRET IC50
[2] = tested on: BH4 levels in SK-N-BE (2) cells; experiment: SKN-N-BE (2) cellular assay, BH4 levels by LC-MS; type: cell-based
[3] = Homo sapiens, SKNBE2, read-out: SK-N-BE(2) IC50, SK-N-BE (2) cells, BH4 levels by LC-MS

Sequence of SNAP-hSPR (sepiapterin reductase, SPR) (P35270 whole entry): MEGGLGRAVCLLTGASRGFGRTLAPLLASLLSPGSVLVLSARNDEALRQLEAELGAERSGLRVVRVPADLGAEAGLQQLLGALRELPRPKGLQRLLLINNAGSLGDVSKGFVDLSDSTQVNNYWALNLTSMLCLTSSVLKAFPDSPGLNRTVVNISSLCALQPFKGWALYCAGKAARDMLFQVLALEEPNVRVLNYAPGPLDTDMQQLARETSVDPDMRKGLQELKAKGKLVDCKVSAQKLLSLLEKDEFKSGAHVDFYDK

| Compound | IC50 [1] | IC50 [2, 3] | IC50 ([2]; read-out: SK-N-BE(2) IC50, SK-N-BE (2) cells, BH4 levels by LC-MS) |
| --- | --- | --- | --- |
| Cc1c(C(=O)N2CCC(c3c[nH]c4ccccc34)CC2)cnn1-c1nc2c(c(=O)[nH]1)CCC2 [Q-0498] | 0.02 µM | 0.03 µM |  |
| Cc1c(C(=O)N2CCC(S(=O)(=O)c3ccc(F)c(F)c3)CC2)cnn1-c1nc2ccsc2c(=O)[nH]1 [Q-0597] | 0.003 µM | 0.053 µM |  |
| Cc1cc(=O)[nH]c(-n2cc(C(=O)N3CCC(C(F)(F)F)CC3)cn2)n1 [Q-0443] | 0.009 µM | 3.9 µM |  |
| Cc1c(C(=O)N2CCC3(CCCCN3)C2)cnn1-c1nc2ccsc2c(=O)[nH]1 (stereo not shown) [Q-0595] | 0.07 µM | 4.4 µM |  |
| Cc1c(C(=O)N2CCC3(CCCN3Cc3ccccc3)C2)cnn1-c1nc2c(c(=O)[nH]1)CCC2 (stereo not shown) [Q-0551] | 0.006 µM | 0.5 µM |  |
| Cc1c(C(=O)N2CCC(C(F)(F)F)C2)cnn1-c1nc2c(c(=O)[nH]1)CCC2 (stereo not shown) [Q-0431] | 0.003 µM | 0.5 µM |  |
| Cc1c(C(=O)N2CCC3(CCCCN3)C2)cnn1-c1nc2c(c(=O)[nH]1)CCC2 (stereo not shown) [Q-0577, 2-(5-methyl-4-(2,6-diazaspiro[4.5]decane-2-carbonyl)-1H-pyrazol-1-yl)-6,7-dihydro-3H-cyclopenta[d]pyrimidin-4(5H)-one] | 0.04 µM | 2.1 µM |  |
| O=C(c1cnn(-c2nc3ccsc3c(=O)[nH]2)c1)N1CCC(CC(F)(F)F)CC1 [Q-0712] | 0.002 µM | 0.3 µM |  |
| COC1(C)CCN(C(=O)c2cnn(-c3nc4c(c(=O)[nH]3)CCC4)c2C)CC1 [Q-0520] | 0.003 µM | 0.2 µM |  |
| O=C(c1cnn(-c2nc3c(c(=O)[nH]2)CCC3)c1)N1CCN(c2ccc(F)cc2F)CC1 [Q-0735] | 0.003 µM | 0.095 µM |  |
| CCC1(C#N)CCN(C(=O)c2cnn(-c3nn4cc(F)cc4c(=O)[nH]3)c2)CC1 [Q-0746] | 0.004 µM | 0.6 µM |  |
| Cc1c(C(=O)N2CCC(CC(F)(F)F)CC2)cnn1-c1nn2cc(F)cc2c(=O)[nH]1 [Q-0747] | 0.008 µM | 0.8 µM |  |
| Cc1cc(=O)[nH]c(-n2ncc(C(=O)N3CCc4ccccc4[C@@H]3C)c2C)n1 (single isomer, unassigned) [Q-0339] | 0.009 µM | 1.5 µM |  |
| CN(C(=O)OC(C)(C)C)[C@@H]1CCN(C(=O)c2cnn(-c3nn4cccc4c(=O)[nH]3)c2)C1 [Q-0730] | 0.001 µM | 0.2 µM |  |
| O=C(c1cnn(-c2nn3cccc3c(=O)[nH]2)c1)N1CCC(S(=O)(=O)c2ccc(F)c(F)c2)CC1 [Q-0716] | 0.002 µM | 0.4 µM |  |
| Cc1c(C(=O)N(C)C2CCCCC2)cnn1-c1nc2c(c(=O)[nH]1)CCC2 [Q-0492] | 0.008 µM | 0.2 µM |  |
| Cc1cc(=O)[nH]c(-n2ncc(C(=O)NC3CCCC3)c2Cc2ccccc2)n1 [Q-0370] | 0.1 µM | 22 µM |  |
| Cc1c(C(=O)N2CCC(c3nc4cc(F)ccc4s3)CC2)cnn1-c1nc2ccsc2c(=O)[nH]1 [Q-0603] | 0.006 µM | 0.1 µM |  |
| Cc1cc(=O)[nH]c(-n2ncc(C(=O)N3CCC(C)(C)C3)c2C)n1 [Q-0341] | 0.005 µM | 1.8 µM |  |
| Cc1c(C(=O)N2CCC(C(O)(C(F)(F)F)C(F)(F)F)CC2)cnn1-c1nc2c(c(=O)[nH]1)CCC2 [Q-0598] | 0.004 µM |  | 0.01 µM |
| COC(=O)c1ccc(-c2nc3c(c(=O)[nH]2)CCC3)nc1 [Q-0471] | 0.08 µM | 16 µM |  |

| Compound | IC50 [1] | IC50 [2, 3] | IC50 ([2]; read-out: SK-N-BE(2) IC50, SK-N-BE (2) cells, BH4 levels by LC-MS) |
| --- | --- | --- | --- |
| Cc1c(C(=O)N2CCC(CC(F)(F)F)CC2)cnn1-c1nc2ccsc2c(=O)[nH]1 [Q-0704] | 0.002 µM | 0.2 µM |  |
| Cc1c(C(=O)N2CCN(c3ccc(F)cc3F)CC2)cnn1-c1nn2cccc2c(=O)[nH]1 [Q-0715] | 0.002 µM | 0.097 µM |  |
| Cc1c(C(=O)N2CC3(C2)CC(O)(C(F)(F)F)C3)cnn1-c1nn2cccc2c(=O)[nH]1 [Q-0805] | 0.004 µM | 2.3 µM |  |
| Cc1c(C(=O)N2CC3CC3(O)C2)cnn1-c1nc2c(c(=O)[nH]1)CCC2 (stereo not shown) [Q-0614] | 0.01 µM | 1.6 µM |  |
| Cc1c(C(=O)N2CCN(c3ccc(F)cc3)CC2)cnn1-c1nn2cccc2c(=O)[nH]1 [Q-0823] | 0.001 µM | 0.066 µM |  |
| O=C(c1cnn(-c2nc3c(c(=O)[nH]2)CCC3)c1)N1CCC(c2nc3ccc(F)cc3s2)CC1 [Q-0718] | 0.004 µM | 0.2 µM |  |
| Cc1c(C(=O)N2CCN3CCC[C@H]3C2)cnn1-c1nn2cccc2c(=O)[nH]1 [Q-0856] | 0.004 µM | 1.1 µM |  |
| Cc1c(C(=O)N(C)Cc2nnc(-c3ccc(Cl)cc3)o2)cnn1-c1nc2c(c(=O)[nH]1)CCC2 [Q-0486] | 0.006 µM | 0.1 µM |  |
| Cc1c(C(=O)N2CCC(C(F)(F)F)CC2)cnn1-c1nc2ccccc2c(=O)[nH]1 [Q-0429] | 0.1 µM | 49 µM |  |
| O=C(c1cnn(-c2nc3sccc3c(=O)[nH]2)c1)N1CCC(C(F)(F)F)CC1 [Q-0753] | 0.002 µM | 0.2 µM |  |
| O=C(c1cnn(-c2nn3cccc3c(=O)[nH]2)c1)N1CCC(S(=O)(=O)c2ccccc2)CC1 [Q-0535] | 0.004 µM | 0.4 µM |  |
| Cc1cc(=O)[nH]c(-n2ncc(C(=O)N3CCC(C(F)(F)F)CC3)c2C)n1 [Q-0359] | 0.003 µM | 1.1 µM |  |
| Cc1c(C(=O)N2CCC(O)(c3ccccc3)CC2C)cnn1-c1nc2c(c(=O)[nH]1)CCC2 (stereo not shown) [Q-0483] | 0.004 µM | 0.049 µM |  |
| Cc1cc(=O)[nH]c(-n2nc(C(=O)N3CCc4ccccc4C3)cc2C)n1 [Q-0365, 6-methyl-2-[5-methyl-3-(1,2,3,4-tetrahydroisoquinoline-2-carbonyl)-1H-pyrazol-1-yl]-3,4-dihydropyrimidin-4-one] | 0.05 µM | 12 µM |  |
| Cc1c(C(=O)N2CCC3C(C2)C3C(F)(F)F)cnn1-c1nn2cccc2c(=O)[nH]1 (stereo not shown) [Q-0844] | 0.001 µM | 0.2 µM |  |
| Cc1c(C(=O)N2C[C@H]3CN(C(=O)OC(C)(C)C)C[C@H]32)cnn1-c1nn2cccc2c(=O)[nH]1 [Q-0842] | 0.002 µM | 0.7 µM |  |
| Cc1nn(-c2nc3ccsc3c(=O)[nH]2)c(C)c1C(=O)N1CCC(C(F)(F)F)CC1 [Q-0419] | 0.005 µM | 0.7 µM |  |
| Cc1c(C(=O)N2CCC(c3ccccc3)CC2)cnn1-c1nc2c(c(=O)[nH]1)CCC2 [Q-0428] | 0.003 µM | 0.019 µM |  |
| Cc1cc(=O)[nH]c(-n2ncc(C(=O)NC34CC5CC(CC(C5)C3)C4)c2C)n1 [Q-0305] | 0.03 µM | 4.6 µM |  |
| Cc1c(C(=O)N2CC3C(C2)C3(F)F)cnn1-c1nn2cccc2c(=O)[nH]1 (stereo not shown) [Q-0807] | 0.002 µM | 0.4 µM |  |
| Cc1c(C(=O)N2CCC(C(F)(F)F)CC2C)cnn1-c1nc2ccsc2c(=O)[nH]1 (stereo not shown) [Q-0422] | 0.003 µM | 0.2 µM |  |

| Compound | IC50 [1] | IC50 [2, 3] | IC50 ([2]; read-out: SK-N-BE(2) IC50, SK-N-BE (2) cells, BH4 levels by LC-MS) |
| --- | --- | --- | --- |
| Cc1c(C(=O)N2CCC(Cc3ccccc3)CC2)cnn1-c1nc2c(c(=O)[nH]1)CCC2 [Q-0491] | 0.02 µM | 0.037 µM |  |
| O=C(c1cnn(-c2nn3cccc3c(=O)[nH]2)c1)N1CCC(C(O)(C(F)(F)F)C(F)(F)F)CC1 [Q-0719] | 0.002 µM | 0.2 µM |  |
| Cc1c(C(=O)N2CCCCC2(C)C)cnn1-c1nc2ccsc2c(=O)[nH]1 [Q-0412] | 0.009 µM | 0.5 µM |  |
| O=C(c1cnn(-c2nc3sccc3c(=O)[nH]2)c1)N1CCN2CCC[C@@H]2C1 [Q-0755] | 0.004 µM | 0.5 µM |  |
| Cc1c(C(=O)N2CCC(C3CC3)CC2)cnn1-c1nn2cccc2c(=O)[nH]1 [Q-0727] | 0.001 µM | 0.081 µM |  |
| O=C(c1cnn(-c2nn3cc(F)cc3c(=O)[nH]2)c1)N1CCC(C(F)(F)F)CC1 [Q-0616, 6-fluoro-2-(4-(4-(trifluoromethyl)piperidine-1-carbonyl)-1H-pyrazol-1-yl)pyrrolo[1,2-f][1,2,4]triazin-4(3H)-one] | 0.002 µM | 0.1 µM |  |
| COC1CN(C(=O)c2cnn(-c3nc4c(c(=O)[nH]3)CCC4)c2C)C1 [Q-0470] | 0.005 µM | 1 µM |  |
| Cc1nc(-n2ncc(C(=O)N3c4ccccc4C[C@H]3C)c2C)[nH]c(=O)c1C (single isomer, unassigned) [Q-0416] | 0.02 µM | 2.8 µM |  |
| COC1CCN(C(=O)c2cnn(-c3nc4c(c(=O)[nH]3)CCC4)c2C)C1 (stereo not shown) [Q-0478] | 0.006 µM | 1.4 µM |  |
| O=C(c1cnn(-c2nc3ccsc3c(=O)[nH]2)c1)N1CCC(c2nc3ccccc3s2)CC1 [Q-0528] | 0.07 µM | 0.8 µM |  |
| Cc1c(C(=O)N2CCCc3ccccc32)cnn1-c1nc2ccsc2c(=O)[nH]1 [Q-0395] | 0.02 µM | 0.5 µM |  |
| COC(=O)c1cnn(-c2nn3c(F)ccc3c(=O)[nH]2)c1C1CC1 [Q-0618] | 0.001 µM | 0.025 µM |  |
| O=C(c1cnn(-c2nc3sccc3c(=O)[nH]2)c1)N1CCC(c2c[nH]c3ccccc23)CC1 [Q-0754] | 0.009 µM | 0.1 µM |  |
| Cc1c(C(=O)N2CCC(C(F)(F)F)CC2)ccn1-c1nc2c(c(=O)[nH]1)CCC2 [Q-0622, 2-(2-methyl-3-(4-(trifluoromethyl)piperidine-1-carbonyl)-1H-pyrrol-1-yl)-6,7-dihydro-3H-cyclopenta[d]pyrimidin-4(5H)-one] | 0.001 µM | 0.058 µM |  |
| Cc1c(C(=O)N2CCN(C(=O)C34CC(C(N)=O)(C3)C4)CC2)cnn1-c1nc2c(c(=O)[nH]1)CCC2 [Q-0630] | 0.009 µM | 10 µM |  |
| Cc1cc(=O)[nH]c(-n2ncc(CN3CCc4ccccc4C3)c2C)n1 [Q-0311] | 0.04 µM | 11 µM |  |
| Cc1cc(=O)[nH]c(-n2ncc(C(=O)NCC3(c4ccccc4)CCCC3)c2C)n1 [Q-0385] | 0.03 µM | 3.8 µM |  |
| CCC(C#N)(CC)C1CCN(C(=O)c2cnn(-c3nc4c(c(=O)[nH]3)CCC4)c2C)CC1 [Q-0626] | 0.001 µM | 0.014 µM |  |
| Cc1c(C(=O)N2CCN(c3cccc(C(F)(F)F)c3)CC2)cnn1-c1nn2cccc2c(=O)[nH]1 [Q-0840] | 0.003 µM | 0.2 µM |  |
| O=C(O)c1cn(-c2nn3cccc3c(=O)[nH]2)nn1 [Q-0774] | 0.2 µM | 10 µM |  |
